US10807992B2, “Single enantiomer antiparasitic compounds” (priority 2017, dated 2020)

System: Ctenocephalides felis (flea), Ixodidae (tick), and Aedes aegypti (mosquito)
Assay: Bio-profiling of C1 racemate and enantiomers, overall conclusions of contact and ingestion assays
Details: for potency against ticks: adult ticks, contact assays
From the text: 1-[6-[5-(3,5-dichloro-4-fluoro-phenyl)-5-(trifluoromethyl)-4H-isothiazol-3-yl]spiro[1H-isobenzofuran-3,3′-azetidine]-1′-yl]-3,3,3-trifluoro-propan-1-one (referred to herein as C1 racemate) is an isothiazoline compound consisting of two isomers: (R)-1-[6-[5-(3,5-dichloro-4-fluoro-phenyl)-5-(trifluoromethyl)-4H-isothiazol-3-yl]spiro[1H-isobenzofuran-3,3′-azetidine]-1′-yl]-3,3,3-trifluoro-propan-1-one (referred herein as C1 (R) enantiomer) and (S)-1-[6-[5-(3,5-dichloro-4-fluoro-phenyl)-5-(trifluoromethyl)-4H-isothiazol-3-yl]spiro[1H-isobenzofuran-3,3′-azetidine]-1′-yl]-3,3,3-trifluoro-propan-1-one (referred to herein as C1 (S) enantiomer). The racemic compound and the two enantiomers were tested against adult stages of Ctenocephalides felis (flea) Ixodidae (tick), and Aedes aegypti (mosquito). The compounds were solubilized in DMSO or an acetone/triton solution and dose response curves were generated for the individual compounds.
For evaluation of contact activity, coated-substrate (flea) and coated-vial (tick and mosquito) assay procedures were used. For evaluation of flea ingestion activity, an artificial feeding assay procedure was used. Insecticidal activity was evaluated at various time-points for each assay. Dose response curves were generated in duplicate on three independent test occasions (Trial 1-Trial 3) and EC50 and EC90 values were calculated.
Therefore, mortality correction was not performed in the assays. Calculation of EC50 and EC90 values was performed using XLfit. Both EC50 and EC90 values were calculated using the average of the two replicates for each Trial.
The C1 (R) enantiomer, C1 (S) enantiomer, and the C1 racemate were successfully evaluated against flea, tick, and mosquito contact and ingestion in vitro screening assays.

Structure (SMILES)	potency against ticks	which enantiomer carries the biological activity of the C1 racemate (flea, tick and mosquito contact and ingestion assays, Trials 1-3)
O=C(CC(F)(F)F)N1CC2(C1)OCc1cc(C3=NSC(c4cc(Cl)c(F)c(Cl)c4)(C(F)(F)F)C3)ccc12 (racemic) [C1 racemate, 1-[6-[5-(3,5-dichloro-4-fluoro-phenyl)-5-(trifluoromethyl)-4H-isothiazol-3-yl]spiro[1H-isobenzofuran-3,3′-azetidine]-1′-yl]-3,3,3-trifluoro-propan-1-one]	excellent potency against ticks	–
O=C(CC(F)(F)F)N1CC2(C1)OCc1cc(C3=NS[C@@](c4cc(Cl)c(F)c(Cl)c4)(C(F)(F)F)C3)ccc12 [C1 (S) enantiomer, (S)-1-[6-[5-(3,5-dichloro-4-fluoro-phenyl)-5-(trifluoromethyl)-4H-isothiazol-3-yl]spiro[1H-isobenzofuran-3,3′-azetidine]-1′-yl]-3,3,3-trifluoro-propan-1-one]	excellent potency against ticks	primarily be associated with the C1 (S) enantiomer
